Test results as given in US11191855B2, “1,7-diaryl-1,6-heptadiene-3,5-dione derivatives, methods for the production and use thereof” (UNIVERSITÄTSKLINIKUM REGENSBURG, priority 2015, dated 2021).
Read-outs that look alike come from different tables or passages of the source.

Experiments:
E. coli ATCC 25922 [1] = test: Phototoxicity test c.1) (LED array 430-435 nm, CFU count by Miles and Misra); assay type: cell-based, Escherichia coli; details: Escherichia coli, ATCC25922, light or radiation study, light dose 33.8 J/cm^2, approx. 435 nm, 60 min at 9.4 mW/cm^2, vs reference control; for log reduction at 10 µM: read-out: Effectiveness against E. Coli: Reduction in CFU in log10 at concentration of 10 μM; for log reduction at 50 µM: read-out: Effectiveness against E. Coli: Reduction in CFU in log10 at concentration of 50 μM
Method: (§1) A sample of the bacterial cell Staphylococcus. aureus (ATCC number: 25923) or Escherichia. coli (ATCC number: 25922) was removed from a cryo-freeze culture and cultured under aerobic conditions at 37° C. and 175 rpm overnight in an orbital shaker (MAXQ4000, Thermo Scientific, Dubuque, Iowa, USA). Growth was carried out in 20 mL Todd-Hewitt broth (Carl Roth, Karlsruhe, Germany) supplemented with 0.3% of yeast extract (AppliChem, Darmstadt, Germany).
Subsequently, dilutions (0, 5, 10, […] and 20% v/v of the overnight culture) and their absorptions were measured at 600 nm in triplicate for 100 μL (Infinite 200 M Pro, Tecan, Mannedorf, Switzerland). A calibration graph (Microsoft Excel) was used to calculate the volume which was required to produce 20 mL of a culture with an absorption of 0.05 at 600 nm. The volume calculated for the overnight culture was topped up with Todd-Hewitt broth (composition as above) to 20 mL and incubated for two hours at 37° C. with constant movement (175 rpm, MAXQ4000). The cultures were then in the exponential growth phase; the absorption at 600 nm was between 0.3 and 0.45.
A 2-hour culture was divided into 1800 μL aliquots. After centrifuging at 20° C., 830 rcf, 5 min (5417R centrifuge, Eppendorf, Hamburg, Germany), the pellets were re-suspended in phosphate buffer (Dulbeccos' Modified Phosphate Saline, DPBS, Sigma-Aldrich) with either 10 or 50 μM of the corresponding photosensitizer, wherein the final volume was kept at 1800 μL.
The solutions obtained were immediately incubated on the orbital shaker (see above for parameters) for 5 or 25 minutes.
Three controls were run at the same time for each photosensitizer. The “light only” control contained DPBS without photosensitizer. The “photosensitizer only” (“PS only”) control was incubated like the PDI samples, but not irradiated and kept strictly in darkness. A further control (double negative, “Co−/−”), received neither light nor photosensitizer.
After the incubation, duplicates of the samples (500 μL each) were transferred into a 24-well microtitre plate (Cellstar, Greiner Bio-One, Frickenhausen, Germany). The “PS only” and “Co −/−” samples were placed in their own microtitre plate which was packed in aluminium foil so as to be lightproof.
The irradiation was carried out under constant shaking (MTS4, IKA, Staufen, Germany, 175 rpm) from below on a LED array with maximum homogeneity of the lighting surface. All of the controls were shaken in the same manner. The technical data for the light source are shown in Table 2; the total dose of light applied was 33.8 J/cm^2.
The determination of the colony forming units (CFU) was carried out in accordance with the method published by Miles and Misra (Miles, A A; Misra, S S, Irwin, J O (1938 Nov.). “The estimation of the bactericidal power of the blood” The Journal of hygiene 38 (6): 732-49). In this regard, serial dilutions (1:10) of the corresponding bacterial suspension were produced in DPBS. 5×10 μL of each bacterial dilution was then dripped onto Todd-Hewitt plates (with broth, additional 1.5% agar (Agar-Agar, Kobe I, Roth, Karlsruhe, Germany) and incubated at 37° C. for 24 h. Next, the number of surviving colony forming units was determined. All of the tests were carried out four times.
The photosensitizers were tested against the bacterial strain E. coli ATCC 25922. FIGS. 1-20 show the measured surviving colony forming units (CFU).
The average reference control (arithmetic mean with standard deviation) (no light, no PS) was 3.6×10^8/mL. The logarithmic reduction after illumination is shown with respect to the reference control. The respective upper value, indicated by a *, refers to an incubation period of 5 min and the respectively lower value, indicated by a #, refers to an incubation period of 25 min.

E. coli ATCC 25922 [2] = test: Phototoxicity test c.2) (BlueV light source, emission maximum approx. 420 nm, CFU count); assay type: cell-based, Escherichia coli; details: light dose 15.7 J/cm^2, approx. 420 nm, 15 min at 17.5 mW/cm^2, vs reference control
Method: as §1
In a second experiment, the photosensitizers (PS) used were dissolved in Millipore water and adjusted to various concentrations. 25 μL of a bacterial suspension grown overnight (˜108/mL) was incubated with 25 μL of photosensitizer solution of the various concentrations at room temperature for 10 seconds in darkness in a 96-well plate.
Next, the suspension was irradiated for 5-20 minutes. For the irradiation, the light source BlueV from Waldmann (Villingen-Schwenningen, Germany) was used, which emits light from 380 to 480 nm (emission maximum at approximately 420 nm). The applied energy density was 17.5 mW/cm^2.
Each experiment was accompanied by three controls in order to exclude side effect of the irradiation/photosensitizer (PS) on the survival of the bacteria: (i) no PS, only light (=light control), (ii) no light, only PS (=dark control) and (iii) neither light nor PS (=reference control). The determination of the colony forming units (CFU) per mL was also carried out in accordance with the method published by Miles, Misra and Irwin described above in section c.1). All of the tests were carried out four times.
The photosensitizers (PS) SACUR-01a, SACUR-03 and SACUR-07 were tested against the bacterial strains S. aureus ATCC 25923 and E. coli ATCC 25922 (FIGS. 21-23). All of the remaining PS were tested against S. aureus ATCC 25923 (FIGS. 24-33). FIGS. 21-33 show the logarithmic reduction after illumination with respect to the reference control.
The average reference control (arithmetic mean with standard deviation) (no light, no PS) was 3.6×10^8/mL for E. coli. The logarithmic reduction after illumination is shown with respect to the reference control.

[3] = 5 min, incubation period 5 min (upper value, *)
[4] = 25 min, incubation period 25 min (lower value)

## Cl.Cl.Cl.Cl.NCCOc1ccc(/C=C/C(=O)CC(=O)/C=C/c2ccc(OCCN)c(OCCN)c2)cc1OCCN [Curcumin 03 hydrochloride]
E. coli ATCC 25922 [1]; [3]
  log reduction at 10 µM: > 7
  log reduction at 50 µM: > 7
E. coli ATCC 25922 [1]; [4]
  log reduction at 10 µM: > 7
  log reduction at 50 µM: > 7
E. coli ATCC 25922 [2]
  Effectiveness against E. Coli: Reduction in CFU in log10 at concentration of 10 μM: >4 log10
  Effectiveness against E. Coli: Reduction in CFU in log10 at concentration of 50 μM: >5 log10

## COc1cc(/C=C/C(=O)CC(=O)/C=C/c2ccc(OCCN)c(OC)c2)ccc1OCCN.Cl.Cl [Curcumin 01a hydrochloride]
E. coli ATCC 25922 [1]; [3]
  log reduction at 10 µM: > 1
  log reduction at 50 µM: > 5
E. coli ATCC 25922 [1]; [4]
  log reduction at 10 µM: > 2
  log reduction at 50 µM: > 5
E. coli ATCC 25922 [2]
  Effectiveness against E. Coli: Reduction in CFU in log10 at concentration of 10 μM: >4 log10
  Effectiveness against E. Coli: Reduction in CFU in log10 at concentration of 50 μM: >5 log10
